Measurements published in patent US8609666B2, “2-morpholino-pyrido[3,2-D]pyrimidines” (Merck Serono SA, priority 2009, dated 2013).

How the values were obtained:
[1] = target: CK2 protein kinase; conditions: Fruman et al., 1998; cited from earlier work
[2] = system: Human recombinant GST-PI3K; test: PI3K induced-lipid phosphorylation scintillation proximity assay (neomycin-coated SPA beads); type: biochemical; conditions: amount necessary to achieve 50% inhibition of PI3K; 120 min at room temperature
Excerpt: The efficacy of compounds of the invention in inhibiting the PI3K induced-lipid phosphorylation may be tested in the following binding assay. The assay combines the scintillation proximity assay technology (SPA, Amersham) with the capacity of neomycin (a polycationic antibiotic) to bind phospholipids with high affinity and specificity. The Scintillation Proximity Assay is based on the properties of weakly emitting isotopes (such as ^3H, ^125I, ^33P). Coating SPA beads with neomycin allows the detection of phosphorylated lipid substrates after incubation with recombinant PI3K and radioactive ATP in the same well, by capturing the radioactive phospholipids to the SPA beads through their specific binding to neomycin. To a 96 wells MTP containing 10 μl of the test compound of Formula (I) (solubilized in 10% DMSO; to yield a concentration of 100, 25, 5.0, 1.25, 0.312, 0.078, 0.0195, 0.00488, 0.00122 and 0.0003 μM of the test compound), the following assay components are added: 1) 10 μL of lipid micelles 2) […] of Kinase buffer ([^33P]γATP162 μM/300 nCi, MgCl2 2.5 mM, DTT 2.5 mM, Na3VO4 25 μM in Hepes 40 mM, pH 7.4) and 3) 10 μL (100 ng) of Human recombinant GST-PI3K (in Hepes 40 mM, pH 7.4, ethylenglycol 4%). After incubation at room temperature for 120 minutes, with gentle agitation, the reaction is stopped by addition of 200 μL of a solution containing 250 μg of neomycin-coated PVT SPA beads, ATP 60 mM and EDTA 6.2 mM in PBS. The assay is further incubated at room temperature for 60 minutes with gentle agitation to allow binding of phospholipids to neomycin-SPA beads. After precipitation of the neomycin-coated PVT SPA beads for 5 minutes at 1500×g, radioactive PtdIns(3)P is quantified by scintillation counting in a Wallac MicroBeta™ plate counter. The values indicated in Table I below refer to the IC50 (μM) with respect to PI3K, i.e. the amount necessary to achieve 50% inhibition of said target. Said values show a considerable inhibitory potency of pyridopyrimidine compounds with regard to PI3K.

Row | SMILES | IC50 [2] [µM] | IC50 [1] [µM]
1 | O=c1cc(N2CCOCC2)oc2c(-c3ccccc3)cccc12 [LY294002] |  | 5 to 10
2 | Cc1cc(O)ccc1-c1nc(N2CCOCC2)nc2c(N(C)CCO)cc(C(=O)O)nc12 [Example 58, 8-[(2-Hydroxyethyl)(methyl)amino]-4-(4-hydroxy-2-methylphenyl)-2-morpholin-4-ylpyrido[3,2-d]pyrimidine-6-carboxylic acid] | 0.936 | 

The remaining molecules from weak to strong by IC50 [2], led by results:

Row | IC50 [2] [µM] | SMILES | IC50 [1] [µM]
3 | 0.855 | O=C(O)c1ccc2nc(N3CCOCC3)nc(-c3ccc(O)cc3)c2n1 [Example 8, 4-(4-Hydroxy-phenyl)-2-morpholin-4-yl-pyrido[3,2-d]pyrimidine-6-carboxylic acid] | 
4 | 0.225 | Cc1cc(C(=O)O)nc2c(-c3cccc(O)c3)nc(N3CCOCC3)nc12 [Example 62, 4-(3-Hydroxyphenyl)-8-methyl-2-morpholin-4-ylpyrido[3,2-d]pyrimidine-6-carboxylic acid] | 
5 | 0.066 | CN(C)c1cc(C(=O)O)nc2c(-c3cc(F)ccc3O)nc(N3CCOCC3)nc12 [Example 29, 8-(Dimethylamino)-4-(5-fluoro-2-hydroxyphenyl)-2-morpholin-4-ylpyrido[3,2-d]pyrimidine-6-carboxylic acid] | 
